# Entries after “also recorded” stand apart in the source; their conditions may differ.
# Assays:
# Adnp^+/− mouse pups = experiment: Ultrasonic vocalization (USV) of pups after dam separation; type: in vivo, mice
# Description: Furthermore, Auditory brain response (ABR) of 2.5 months old mice presents prolonged latency of hearing in Adnp+/− vs. Adnp+/+ females. (A) Results are presented as means±SEM. Ultrasonic vocalizations (USVs) were recorded in eight-day-old pups, subjected to daily subcutaneous injections of NAP (25 μg/ml saline) or saline (20 μl and 40 μl on postnatal days 1-4 and 5-7). The recordings were performed following dam separation according to published literature (Shu, W., et al. 2005. Proc Nati Acad Sci USA 102:9643-9648) NAP was injected as described before (Rotstein, M., et al., 2006. J Pharmacol Exp Ther 319:332-339).
# Language and speech deficits affect ADNP-mutated children (38, 39) and autistic children in general (51). In rodents, both speech and social communication are tested by analysis of isolation induced ultrasonic vocalizations (USVs) (52). As part of USV test, 25 μg of NAP were diluted in 1 ml saline and injected (subcutaneous) to Adnp^+/− mouse pups for 9 subsequent days (1-9 days of age) in doses of 20, 40 μl on days 1-4, 5-7 respectively (50).
# Adnp^+/− mice [1] = experiment: Odor discrimination test; type: in vivo
# Description: As social memory depends on olfactory function, NAP treatment was also tested in odor discrimination test. Odors were presented on a suspended cotton swab to the test mouse placed into the clean cage with fresh shavings. Each mouse was tested during three consecutive 2-min periods for each odor, with 2-min intervals between presentations. The x axis indicates the consecutive number of the odor exposure period. The time that the mouse smelled the swab was recorded (beginning whenever the animal oriented its nostrils toward the cotton swab, within 2 cm or less). (Malishkevich et al., Transl Psychiatry (2015) 5, e501; Amram et al., Mol Psychiatry. 2016 10:1467-76).
# Chl1 = experiment: Hippocampal Chl1 mRNA expression, quantitative real-time PCR; type: in vivo; settings: 7.5-month-old mice treated with NAP/CB, FIG. 8F
# Description: In females, NAP regulates genes deregulated with ADNP mutation in the hippocampus. […] Sexual dichotomy determined by t-test analysis was also observed for Akap6 and Chl1 expression between Adnp^+/− males and females (#p<0.05, ##p<0.01, ###p<0.001).
# (§1) Quantitative reverse transcription real time polymerase chain reaction (RT-PCR) was performed as before (18, 37).
# [2] = test system: Adnp^+/+ and Adnp^+/− male mice; experiment: Open field test; type: in vivo; settings: 15 min
# Description: FIG. 5. […] Furthermore, NAP ameliorates motor dysfunction in Adnp^+/− mice. Each male mouse (n=9-12 per group) was placed in the middle of the field and allowed to freely explore the arena for 15 min. The duration in center zone (A), and the total path traveled (B) were measured by the Ethovision XT video tracking system (Noldus Inc. Leesburg, Va.).
# (§2) Experiments performed as we described in Malishkevich et al., 2015 (37) and Amram et al., Mol Psychiatry. 2016 October; 21(10):1467-76 (7). 3-6 month-old male mice were used, drug application (0.5 μg/5 μl/mouse) was once daily, for one month and then behavioral assays were initiated together with drug application. In experiments with the vehicle termed DD (NAP-benzalkonium), drug application was at 2 months of age and continued as above. Open field experiments (16, 17) and elevated plus maze evaluations (18) were carried out as before.
# Adnp^+/− mice [3] = experiment: Object recognition test; type: in vivo
# Description: Data are expressed as mean (±SEM) total time (sec) spent exploring all objects designated by relative discrimination index (a and b-exploration of familiar and novel object, respectively) in Phase 2 (A) and Phase 3 (B). Two identical objects were presented during Phase 1 (habituation), and one of the identical objects was replaced by a novel object during Phases 2 and 3. […] (C) 2-month-old mice (n=3-4 males or 6-8 females per experimental group) were treated daily, five times a week for 6 weeks with 0.5 μg NAP/mouse/day by intranasal administration in DD=7.5 mg/ml of NaCl, 1.7 mg/ml of citric acid monohydrate, 3 mg/ml of disodium phosphate dihydrate, and 0.2 mg/ml of 50% benzalkonium chloride solution. Animal performance in the object recognition test after four week treatment is shown. Data are expressed as mean (±SEM) as above, in the long retention choice phase (24 hours after habituation).
# as §2
# Animal performance in the object recognition memory test is shown. Two identical objects were presented during the habituation phase, and one of the identical objects was replaced by a novel object during the short retention choice phase (3 hours) and the long retention choice phase (24 hours).
# Akap6 = Akap6 tongue gene expression, quantitative real-time PCR; type: in vivo, mice
# Description: Tongue total RNA was extracted from 4-month-old mice (treated with NAP/DD as above) and analyzed for Akap6, Hprt, and Gapdh mRNA expression by quantitative real-time PCR (n=6-14 replicates per experimental group). HPRT and Gapdh served as normalizing transcripts.
# as §1
# Adnp^+/− mice [4] = experiment: Hanging wire test; type: in vivo
# From the text: The hanging wire test measures the strength of the mouse paws by using the latency to fall off from an inverted cage lid (placed 50 cm above the surface) onto a soft bedding (maximum time 120 sec). Data are expressed as mean±SEM.
# [5] = tongue, 4-month-old mice, NAP/DD, p<0.05
# [6] = 5-month-old mice, 0.5 μg NAP/mouse/day intranasal in CB, 3 weeks, p<0.05
compound,measurement,setting,value
CC[C@H](C)[C@H](NC(=O)[C@H](CO)NC(=O)[C@@H](NC(=O)[C@@H]1CCCN1C(=O)[C@H](C)NC(=O)[C@@H](N)CC(N)=O)C(C)C)C(=O)N1CCC[C@H]1C(=O)N[C@@H](CCC(N)=O)C(=O)O [NAP],"USV per minute, male and female groups combined","Adnp^+/− mouse pups; Adnp^+/− pups, NAP daily injections, FIG. 9C",protected against this deficiency; also recorded: most significant increase
same,USV per minute by sex,"Adnp^+/− mouse pups; Adnp^+/− pups, NAP vs saline treated littermates, increased group size, FIG. 9B",normalizing it in females; also recorded: increased vocalization in both sexes
same,"number of USVs produced in a minute, Adnp^+/− pups","Adnp^+/− mouse pups; eight-day-old pups, daily subcutaneous NAP (25 μg/ml saline) vs saline, p=0.005",significant increase; also recorded: amelioration
same,"number of USVs produced in a minute, Adnp^+/+ pups","Adnp^+/− mouse pups; eight-day-old pups, daily subcutaneous NAP vs saline, p=0.73",no significant treatment effect
same,"general olfaction ability (AUC), males","Adnp^+/− mice [1]; 2-month-old mice (n=3-4), NAP intranasal in DD, 8 weeks, two-way ANOVA p=0.046",main effect for treatment
same,"general olfaction ability (AUC), females","Adnp^+/− mice [1]; 5-month-old mice, NAP intranasal in CB, 9 weeks, NAP vs vehicle p<0.01",significant difference
same,"general olfaction ability (AUC), males","Adnp^+/− mice [1]; 5-month-old mice, NAP intranasal in CB, 9 weeks, NAP vs vehicle p<0.05",significant difference
same,general change in olfactory behavior,"Adnp^+/− mice [1]; FIG. 3D-G, both sexes, CB and DD",apparently normalized
same,hippocampal Chl1 expression,Chl1,also regulated by NAP
same,duration in center zone,"[2]; male mice of both genotypes, NAP-treated vs vehicle-treated p<0.05",staying longer time at the center of the field
same,total path traveled (slight hyperactivity of Adnp^+/− mice),[2]; male mice,not affecting the slight hyperactivity
same,"relative discrimination index, long retention choice phase, females","Adnp^+/− mice [3]; 2-month-old mice, 0.5 μg NAP/mouse/day intranasal in DD, after four week treatment, p<0.05",normalizing the deficient female behavior
same,"relative discrimination index, long retention choice phase, males","Adnp^+/− mice [3]; 2-month-old mice, 0.5 μg NAP/mouse/day intranasal in DD, n=3-4",only a trend
same,"relative discrimination index, short retention phase","Adnp^+/− mice [3]; 2-month-old mice, NAP intranasal in DD",No differences were observed
same,"relative discrimination index novel vs familiar object, short retention choice phase","Adnp^+/− mice [3]; 3 hours after habituation, male mice 6-9 months, NAP in CB intranasal, NAP-treated vs Adnp^+/− p<0.001",Significant differences
same,"relative discrimination index novel vs familiar object, long retention choice phase","Adnp^+/− mice [3]; 24 hours after habituation, male mice 6-9 months, NAP in CB intranasal, NAP-treated vs Adnp^+/− p<0.001",Significant differences
same,dysregulated Akap6 expression in the tongue,"Akap6; FIG. 8 C,D",amelioration
same,Akap6 normalized to Gapdh: vehicle Adnp^+/− female mice compared to NAP-treated Adnp^+/− mice,"Akap6; tongue, 4-month-old mice, NAP/DD",significantly increased expression
same,Akap6 normalized to Gapdh: NAP-treated Adnp^+/− male mice compared to vehicle-treated,Akap6; [5],significantly increased
same,Akap6 normalized to Hprt: vehicle Adnp^+/− male mice compared to NAP-treated Adnp^+/− mice,Akap6; [5],significantly decreased
same,"latency to fall, males","Adnp^+/− mice [4]; 2-month-old mice, 0.5 μg NAP/mouse/day intranasal in DD, 5 weeks, p<0.01",improved
same,"latency to fall, females",Adnp^+/− mice [4]; [6],significant difference
same,"latency to fall, males",Adnp^+/− mice [4]; [6],significant difference
